In patent publication US20250092031A1, “RIPK3 INHIBITORS AND METHODS OF USE” (Momentum Therapeutics, Inc., priority 2023, published 2025) one finds IC50 data, which are given here for 25 compounds.

Assay [1] concerns Murine L929 cells. Put plainly: Necroptosis inhibition assay in L929 cells (mTNFα + zVAD, Sytox Green). In kind it is cell-based. The settings on record: Mus musculus, 10 ng/ml mTNFα and 20 μM zVAD, 6 hours, Sytox Green fluorescence. The method, then: Murine L929 cells (ATCC-CCL-1) were seeded at 10,000 cells/well in a 96-well plate. Cells were treated 48 hours after seeding with 10 ng/ml mTNFα (R&D Systems) and 20 μM zVAD (ChemShuttle) in the presence of different concentrations of compounds ranging from […] to 0.01 μM. Cells treated with 0.1% DMSO or cells treated with TNFα+zVAD were used as control and vehicle respectively.
Assay plates containing cells were incubated for 6 hours at 37° C. and 5% CO2. Necroptosis was assessed using Sytox Green Nucleic Acid Stain (Invitrogen). After incubation, 100 μL of Sytox dye at 2 μM (2×) diluted in HBSS 1× was added in each well and incubated for 15 min at room temperature. Fluorescence (500ex/530em) was recorded using the Cytation 5 microplate reader (Biotek).
(§1) Percentage of necroptosis inhibition was calculated as the percent compared to control and vehicle conditions which correspond to 100% and 0% respectively. The half-maximum necroptosis inhibition (IC50) levels were calculated using GraphPad Prism software and are shown in Table 3 (NT represents compound not tested).

The test system of assay [2] is Human HT-29 cells. Kind of assay: Necroptosis inhibition assay in HT-29 cells (hTNFα + zVAD + SMAC mimetic, Sytox Green/Hoechst). In kind it is cell-based. The settings on record: 10 ng/ml hTNFα, 20 μM zVAD and 100 nM SMAC mimetic, 6 hours, Sytox/Hoechst positive cells, read-out: HT29 necroptosis inhibition IC50. The method, then:
Human HT-29 cells (ATCC-HTB-38) were seeded at 10,000 cells/well in a 96-well plate. Cells were treated 48 hours after seeding with 10 ng/ml hTNFα (R&D Systems), 20 μM zVAD (ChemShuttle) and 100 nM SMAC mimetic (MedChem Express) in the presence of different concentrations of compounds ranging from […] to 0.01 μM. Cells treated with 0.1% DMSO or cells treated with TNFα+zVAD+SMAC mimetic were used as control and vehicle respectively.
Assay plates containing cells were incubated for 6 hours at 37° C. and 5% CO2. Necroptosis was assessed using Sytox Green Nucleic Acid Stain (Invitrogen) and Hoechst staining. After incubation, 100 μL of Sytox dye at 2 μM (2×) diluted in HBSS 1× was added to each well. At the same time, Hoechst stain is added to a final concentration of 10 μM and incubated for 15 min at room temperature. Images were taken for Sytox and Hoechst using the Cytation 5 microplate reader with DAPI and GFP filter cubes (Biotek). Sytox and Hoechst positive cells were counted with CellProfiler software.
as §1

For the compound `O=C(c1ccc(-c2ccc3c(Nc4ccc5scnc5c4)ccnc3c2)c(F)c1)N1CCNCC1` [Compound 250, (4-(4-(benzo[d]thiazol-5-ylamino)quinolin-7-yl)-3-fluorophenyl)(piperazin-1-yl)methanone], the IC50 in assay [1] was 344 nM; in assay [2], 2530 nM.

Turning to `O=C(c1ccc(-c2ccc3nccc(Nc4ccc5scnc5c4)c3c2)c(F)c1)N1CC2(CCOCC2)C1` [Compound 251, (4-(4-(benzo[d]thiazol-5-ylamino)quinolin-6-yl)-3-fluorophenyl)(7-oxa-2-azaspiro[3.5]nonan-2-yl)methanone], the IC50 in assay [1] stood at 582 nM; in assay [2], 822 nM.

Regarding `O=C(c1ccc(-c2ccc3c(Nc4ccc5scnc5c4)ccnc3c2)c(F)c1)N1CC2(CCOCC2)C1` [Compound 252, (4-(4-(benzo[d]thiazol-5-ylamino)quinolin-7-yl)-3-fluorophenyl)(7-oxa-2-azaspiro[3.5]nonan-2-yl)methanone], the IC50 in assay [1] worked out at 260 nM; in assay [2], 244 nM.

As to `c1cc(Nc2ccc3scnc3c2)c2ccc(-c3ccc(C4CCNCC4)cc3)cc2n1` [Compound 253, N-(7-(4-(piperidin-4-yl)phenyl)quinolin-4-yl)benzo[d]thiazol-5-amine], the figures for the IC50 in assay [1] and in assay [2] were 271 nM and 755 nM, respectively.

For the compound `CN1CCN(C(=O)c2ccc(-c3ccc4nccc(Nc5ccc6scnc6c5)c4c3)c(F)c2)CC1=O` [Compound 273, 4-(4-(4-(benzo[d]thiazol-5-ylamino)quinolin-6-yl)-3-fluorobenzoyl)-1-methylpiperazin-2-one], the IC50 came to 1100 nM in assay [1] and 780 nM in assay [2].

Turning to `CN1CCN(C(=O)c2ccc(-c3ccc4c(Nc5ccc6scnc6c5)ccnc4c3)c(F)c2)CC1=O` [Compound 274, 4-(4-(4-(benzo[d]thiazol-5-ylamino)quinolin-7-yl)-3-fluorobenzoyl)-1-methylpiperazin-2-one], the IC50 in assay [1] was determined as 515 nM; in assay [2], 1190 nM.

Take `O=C1CN(C(=O)c2ccc(-c3ccc4nccc(Nc5ccc6scnc6c5)c4c3)c(F)c2)CCN1` [Compound 275, 4-(4-(4-(benzo[d]thiazol-5-ylamino)quinolin-6-yl)-3-fluorobenzoyl)piperazin-2-one]: the IC50 in assay [1] stood at 3820 nM; in assay [2], 689 nM.

Regarding `CC1CN(C(=O)c2ccc(-c3ccc4nccc(Nc5ccc6scnc6c5)c4c3)c(F)c2)CCN1` (stereo not drawn) [Compound 286, (4-(4-(benzo[d]thiazol-5-ylamino)quinolin-6-yl)-3-fluorophenyl)(3-methylpiperazin-1-yl)methanone], the values for the IC50 in assay [1] and in assay [2] were 852 nM and 75.8 nM, respectively.

Consider `Fc1cc(CN2CCC3(CCNCC3)CC2)ccc1-c1ccc2nccc(Nc3ccc4scnc4c3)c2c1` [Compound 290, N-(6-(4-((3,9-diazaspiro[5.5]undecan-3-yl)methyl)-2-fluorophenyl)quinolin-4-yl)benzo[d]thiazol-5-amine], for which the IC50 is less than 10000 nM in assay [1] and less than 1000 nM in assay [2].

In the case of `Fc1cc(CN2CCC3(CCNCC3)CC2)ccc1-c1ccc2c(Nc3ccc4scnc4c3)ccnc2c1` [Compound 291, N-(7-(4-((3,9-diazaspiro[5.5]undecan-3-yl)methyl)-2-fluorophenyl)quinolin-4-yl)benzo[d]thiazol-5-amine], the concentration for half-maximal inhibition (IC50) in assay [1] is less than 10000 nM; in assay [2] it was less than 1000 nM.

For the compound `C[C@@H]1CN(C(=O)c2ccc(-c3ccc4nccc(Nc5ccc6scnc6c5)c4c3)c(F)c2)C[C@H](C)N1` [Compound 293, (4-(4-(benzo[d]thiazol-5-ylamino)quinolin-6-yl)-3-fluorophenyl)((3R,5S)-3,5-dimethylpiperazin-1-yl)methanone], the figures for the IC50 in assay [1] and in assay [2] were 347 nM and 32.3 nM, respectively.

Consider `Fc1cc(OC2CCNCC2)ccc1-c1ccc2nccc(Nc3ccc4scnc4c3)c2c1` [Compound 295, N-(6-(2-fluoro-4-(piperidin-4-yloxy)phenyl)quinolin-4-yl)benzo[d]thiazol-5-amine], for which the IC50 was 781 nM in assay [1] and 147 nM in assay [2].

Regarding `Cc1cc(-c2ccc3nccc(Nc4ccc5scnc5c4)c3c2)c(F)cc1C(=O)N1CCNCC1` [Compound 296, (4-(4-(benzo[d]thiazol-5-ylamino)quinolin-6-yl)-5-fluoro-2-methylphenyl)(piperazin-1-yl)methanone], the figures for the IC50 in assay [1] and in assay [2] were 1290 nM and 16.9 nM, respectively.

For the compound `Cc1cc(-c2ccc3c(Nc4ccc5scnc5c4)ccnc3c2)c(F)cc1C(=O)N1CCNCC1` [Compound 297, (4-(4-(benzo[d]thiazol-5-ylamino)quinolin-7-yl)-5-fluoro-2-methylphenyl)(piperazin-1-yl)methanone], the IC50 in assay [1] came out at 282 nM; in assay [2] it was 174 nM.

For `Fc1cc(CN2CC3CNCC3C2)ccc1-c1ccc2nccc(Nc3ccc4scnc4c3)c2c1` (stereo not drawn) [Compound 299, N-(6-(2-fluoro-4-((hexahydropyrrolo[3,4-c]pyrrol-2(1H)-yl)methyl)phenyl)quinolin-4-yl)benzo[d]thiazol-5-amine], the IC50 turned out to be 987 nM in assay [1] and 462 nM in assay [2].

`Fc1cc(CN2CC3CNCC3C2)ccc1-c1ccc2c(Nc3ccc4scnc4c3)ccnc2c1` (stereo not drawn) [Compound 300, N-(7-(2-fluoro-4-((hexahydropyrrolo[3,4-c]pyrrol-2(1H)-yl)methyl)phenyl)quinolin-4-yl)benzo[d]thiazol-5-amine]: the IC50 in assay [1] was determined as 461 nM; in assay [2], 721 nM.

Turning to `O=C(c1ccc(-c2ccc3c(Nc4ccc5scnc5c4)ccnc3c2)c(F)c1)N1C[C@@H]2C[C@H]1CN2` [Compound 301, (4-(4-(benzo[d]thiazol-5-ylamino)quinolin-7-yl)-3-fluorophenyl)((1S,4S)-2,5-diazabicyclo[2.2.1]heptan-2-yl)methanone], the IC50 turned out to be 427 nM in assay [1] and 197 nM in assay [2].

In the case of `O=C(c1ccc(-c2ccc3c(Nc4ccc5scnc5c4)ccnc3c2)cc1F)N1CC2CNCC2C1` (stereo not drawn) [Compound 303, (4-(4-(benzo[d]thiazol-5-ylamino)quinolin-7-yl)-2-fluorophenyl)(hexahydropyrrolo[3,4-c]pyrrol-2(1H)-yl)methanone], the IC50 in assay [1] worked out at 977 nM; in assay [2], 690 nM.

On to `O=C(c1ccc(-c2ccc3nccc(Nc4ccc5scnc5c4)c3c2)cc1F)N1CC2CNCC2C1` (stereo not drawn) [Compound 305, (4-(4-(benzo[d]thiazol-5-ylamino)quinolin-6-yl)-2-fluorophenyl)(hexahydropyrrolo[3,4-c]pyrrol-2(1H)-yl)methanone], for which the figures for the IC50 in assay [1] and in assay [2] were more than 10000 nM and 402 nM, respectively.

Regarding `O=C(c1ccc(-c2ccc3nccc(Nc4ccc5scnc5c4)c3c2)c(F)c1)N1C[C@H]2CNC[C@H]2C1` [Compound 306, (4-(4-(benzo[d]thiazol-5-ylamino)quinolin-6-yl)-3-fluorophenyl)((3aR,6aS)-hexahydropyrrolo[3,4-c]pyrrol-2(1H)-yl)methanone], the half-maximal inhibitory concentration (IC50) is less than 10000 nM in assay [1] and 148 nM in assay [2].

For the compound `O=C(c1ccc(-c2ccc3c(Nc4ccc5scnc5c4)ccnc3c2)c(F)c1)N1C[C@H]2CNC[C@H]2C1` [Compound 307, (4-(4-(benzo[d]thiazol-5-ylamino)quinolin-7-yl)-3-fluorophenyl)((3aR,6aS)-hexahydropyrrolo[3,4-c]pyrrol-2(1H)-yl)methanone], the IC50 in assay [1] was 774 nM; in assay [2], 271 nM.

Regarding `NC1CN(C(=O)c2ccc(-c3ccc4c(Nc5ccc6scnc6c5)ccnc4c3)c(F)c2)C1` [Compound 310, (3-aminoazetidin-1-yl)(4-(4-(benzo[d]thiazol-5-ylamino)quinolin-7-yl)-3-fluorophenyl)methanone], the IC50 in assay [1] worked out at 663 nM; in assay [2], 294 nM.

For `Fc1cc(OC2CC3(CNC3)C2)ccc1-c1ccc2nccc(Nc3ccc4scnc4c3)c2c1` [Compound 311, N-(6-(4-(2-azaspiro[3.3]heptan-6-yloxy)-2-fluorophenyl)quinolin-4-yl)benzo[d]thiazol-5-amine], the IC50 came out at 1030 nM in assay [1] and 732 nM in assay [2].

Turning to `Fc1cc(CN2CCNCC2)ccc1-c1ccc2nccc(Nc3ccc4[nH]ncc4c3)c2c1` [Compound 387, 6-(2-fluoro-4-(piperazin-1-ylmethyl)phenyl)-N-(1H-indazol-5-yl)quinolin-4-amine], the IC50 in assay [1] is more than 10000 nM.

For the compound `Cn1ncc2cc(Nc3ccnc4ccc(-c5ccc(CN6CCNCC6)cc5F)cc34)ccc21` [Compound 388, 6-(2-fluoro-4-(piperazin-1-ylmethyl)phenyl)-N-(1-methyl-1H-indazol-5-yl)quinolin-4-amine], the concentration for half-maximal inhibition (IC50) in assay [1] was more than 10000 nM.
